“And” between values parts separate entries of the source, which are not always exact repeats. Equal entries are not always repeated.
SMILES	melting point
c1ccc(C(c2ccccc2)c2ccccc2)cc1 [1,1',1''-Methanetriyltribenzene]	94 °C
O=[N+]([O-])c1c(Cl)c(Cl)c(Cl)c(Cl)c1Cl [pentachloronitrobenzene]	144 °C
CC12CCC(/C(=C\Nc3ccccc3C(=O)O)C1=O)C2(C)C (stereo not drawn)	112 °C
C(#Cc1ccccc1)c1ccccc1 [1,1'-Ethyne-1,2-diyldibenzene]	60 °C
O=[N+]([O-])c1cccc(I)c1 [1-iodo-3-nitrobenzene]	37 °C
CC1(C)C(=O)N(Cl)C(=O)N1Cl [1,3-Dichloro-5,5-dimethylimidazolidine-2,4-dione]	135 °C
C=C(CC)CC [2-ethyl-1-butene]	-132 °C
COC1=CC(=O)CC(C)C12Oc1c(Cl)c(OC)cc(OC)c1C2=O (stereo not drawn)	219 °C
OB(O)c1cc(-c2ccccc2)cc(-c2ccccc2)c1 [1,1':3',1''-terphenyl-5'-boronic acid]	294 °C
CCCCCS [1-pentanethiol]	-76 °C
CCCCCCI [1-iodohexane]	-75 °C
O=[N+]([O-])c1ccc(/N=N/c2c(O)ccc3ccccc23)cc1 [1-(4-nitrophenylazo)-2-naphthol]	250 °C
CCCCCCBr [1-bromohexane]	-85 °C
Fc1c(F)c(F)c(-c2c(F)c(F)c(F)c(F)c2F)c(F)c1F [decafluorobiphenyl]	68 °C
COC1CC(C(=O)Cl)CC(OC)C1OC (stereo not drawn) [3,4,5-trimethoxycyclohexanecarbonyl chloride]	82 °C
CCC1=C(/C=N/Nc2ccc([N+](=O)[O-])cc2[N+](=O)[O-])CCCC1	194 °C
CC(=O)OC1CCC2C3CCC4CC=CCC4(C)C3CCC12C (stereo not drawn) [androst-2-en-17-yl acetate]	94 °C
O=[N+]([O-])c1ccc(CCl)cc1 [4-nitrobenzyl chloride]	72 °C
O=C=Nc1cccc2ccccc12 [1-naphthyl isocyanate]	4 °C
O=[N+]([O-])c1ccccc1 [nitrobenzene]	6 °C
CC12CCC3C(CCC4(C)CC5(CCC34C)OCCO5)C1CCC2=O (stereo not drawn)	159 °C

SMILES	melting point
ClCCCl [1,2-dichloroethane]	-35 °C
Nc1cc(Cl)ccc1O [5-chloro-2-hydroxyaniline]	143 °C
OC(CS)C(O)CS (stereo not drawn) [1,4-Disulfanylbutane-2,3-diol]	43 °C
O=C(O)c1cc(Br)cc(Br)c1 [3,5-dibromobenzoic acid]	220 °C
CCCC(C)(COC(N)=O)COC(N)=O [2-[(Carbamoyloxy)methyl]-2-methylpentyl carbamate]	105 °C
CCC1(c2ccccc2)C(=O)NC(=O)NC1=O [phenobarbital]	174 °C and 176 °C
O=C(O)c1ccccc1/N=N/c1ccc(O)cc1 [2-(4-hydroxyphenyl-azo)benzoic acid]	206 °C
CN1CC(Br)C(=O)NC1=O (stereo not drawn) [5-bromo-1-methyldihydropyrimidine-2,4(1H,3H)-dione]	149 °C
O=C(Cl)C(=O)Cl [Ethanedioyl dichloride]	-9 °C
COc1c(F)cc(F)cc1B(O)O [3,5-difluoro-2-methoxybenzeneboronic acid]	114 °C
O=[N+]([O-])OCC(CO[N+](=O)[O-])O[N+](=O)[O-] [Nitroglycerin]	13.5 °C
Cc1c2ccccc2cc2ccccc12 [9-Methylanthracene]	78 °C
O=C(O)c1cc(Cl)ccc1Cl [2,5-dichlorobenzoic_acid]	156 °C
O=[N+]([O-])c1ccccc1O [o-nitrophenol]	45 °C
Cc1ccccc1/N=N/c1ccc(/N=N/c2c(O)ccc3ccccc23)c(C)c1	199 °C
CC(=O)c1ccccn1 [2-acetylpyridine]	9 °C
C[C@@H](Cl)CCl [1,2-Dichloro-Propane]	-100 °C
Cc1nn(C)c(C)c1C=O [1,3,5-trimethyl-1h-pyrazole-4-carboxaldehyde]	82 °C
CCc1ccc2c(c1)C(=O)c1ccccc1C2=O [2-Ethylanthraquinone]	109 °C
Nc1cccc(Cc2cccc(N)c2)c1 [3,3'-diaminodiphenylmethane]	82 °C

Results, then the compound that gave them:

melting point	SMILES
191 °C and 194 °C	Cc1noc(NS(=O)(=O)c2ccc(N)cc2)c1C [sulfisoxazole]
-29.3 °C	CC(C)CC(=O)O [isovaleric acid]
88 °C	CCCCCCCCCCCCCCCCCCCCCCCCCCCCCCCCCCCCCCCCCCCC [tetratetracontane]
140 °C	NC(=O)c1ccccc1O [salicylamide]
182 °C	CC(=O)NS(=O)(=O)c1ccc(N)cc1 [Sulfacetamide]
104 °C	Clc1c2ccccc2cc2ccccc12 [9-Chloroanthracene]
116 °C	CN(C)CCN1C(=O)c2ccccc2N(C)c2ccccc21 [dibenzepin]
232 °C	O=C(O)/C=C/c1ccc(C(F)(F)F)cc1 [trans-4-(trifluoromethyl)cinnamic acid]
14 °C	COc1ccc(N)c(C)c1 [4-methoxy-2-methylaniline]
-10 °C	CCOC(=O)/C=C\C(=O)OCC [Diethyl (2Z)-but-2-enedioate]
78 °C	CCc1cc2cc(OC)c(OC)cc2c(Cc2ccccc2)n1 [moxaverine]
91 °C	CC(C)(C)OC(=O)/N=N/C(=O)OC(C)(C)C [di-tert-butyl azodicarboxylate]
210 °C	C=CCN1C(=O)C(CC(C)C)NC1=S (stereo not drawn) [albutoin]
-109 °C	COC(C)(C)C [tert-butyl methyl ether]
-126 °C	CC1CCCCC1 [methylcyclohexane]
165 °C	O=C(O)c1ccc(C(=O)OC(=O)c2ccc(C(=O)O)cc2C(=O)O)c(C(=O)O)c1 [4,4'-(Oxydicarbonyl)diisophthalic acid]
106 °C	COc1cccc(C(=O)O)c1 [3-Methoxybenzoic acid]
269 °C	NS(=O)(=O)c1cc2c(cc1Cl)NCNS2(=O)=O [hydrochlorothiazide]
60 °C	C(#Cc1ccccc1)c1ccccc1 [diphenylacetylene]

melting point	SMILES
95 °C	O=C(C(=O)c1ccccc1)c1ccccc1 [benzil]
112 °C	O=[N+]([O-])c1ccc(O)cc1 [4-nitrophenol]
225 °C	OB(O)c1ccc(Br)c(F)c1F [4-bromo-2,3-difluorobenzeneboronic acid]
187 °C	Cc1nnc(S)s1 [5-methyl-1,3,4-thiadiazole-2-thiol]
195 °C	COc1cc(/C=C/C(=O)O)cc(OC)c1O [sinapic acid]
174 °C	C=C[C@H]1C[N@@]2CC[C@H]1C[C@@H]2[C@@H](O)c1ccnc2ccc(OC)cc12 [quinidine]
7 °C	CCCCCCCCCCO [Decan-1-ol]
173 °C	O=C(O)/C(=C/c1ccccc1)c1ccccc1 [alpha-phenylcinnamic acid]
268 °C	O=C1CN(/N=C/c2ccc([N+](=O)[O-])o2)C(=O)N1 [Nitrofurantoin]
74.5 °C	CN(C)c1ccc(C=O)cc1 [4-dimethylaminobenzaldehyde]
83.8 °C	CSc1nc(Cl)cc(N2CCCCC2)n1 [4-Chloro-2-(methylsulfanyl)-6-(piperidin-1-yl)pyrimidine]
68 °C	Clc1ccc(Cl)nn1 [3,6-dichloropyridazine]
111 °C	ON=Cc1ccccn1 [pyridine-2-carboxaldoxime]
146 °C	CC12CCC(C=C/C1=N\O)C2(C)C (stereo not drawn) [(2E)-N-hydroxy-1,8,8-trimethylbicyclo[3.2.1]oct-3-en-2-imine]
267 °C	Oc1ccnc2ccc(C(F)(F)F)cc12 [4-hydroxy-6-(trifluoromethyl)quinoline]
-183 °C	[2H]C([2H])([2H])[2H] [(~2~H_4_)Methane]
57 °C	CN(C)CCCN1c2ccccc2Sc2ccc(Cl)cc21 [chlorpromazine]
29 °C	CCCCCCCCCCCCN [Dodecan-1-amine]
-44 °C	C[Si]1(C)O[Si](C)(C)O[Si](C)(C)O[Si](C)(C)O[Si](C)(C)O1 [decamethylcyclopentasiloxane]

melting point	SMILES
-9 °C	COC(=O)c1ccccc1O [methyl salicylate]
107 °C	CCCCC1C(=O)N(c2ccccc2)N(c2ccccc2)C1=O [Phenylbutazone]
115 °C	CC(C)Oc1ccc2c(=O)c(-c3ccccc3)coc2c1 [ipriflavone]
133 °C	O=C(O)/C=C/c1ccccc1 [trans-cinnamic_acid]
103 °C	NNS(=O)(=O)c1ccccc1 [benzenesulfonyl hydrazide]
108 °C	OC[C@H]1O[C@](O)(CO)[C@@H](O)[C@@H]1O [D-fructose]
-83 °C	COC(CC(C)=O)OC [acetylacetaldehyde dimethyl acetal]
46 °C and 48.5 °C and 47 °C	O=Cc1ccc(Cl)cc1 [4-chlorobenzaldehyde]
75 °C	COc1ccc(C(C)(C)C)cc1C(=O)O [5-tert-butyl-2-methoxybenzoic acid]
116 °C	CCOC(=O)c1ccc(O)cc1 [ethylparaben]
198 °C	CC(C)C1=C(O)C(=O)C2=C(C(=O)CC3C(C)(C)CCCC23C)C1=O (stereo not drawn) [7-Oxoroyleanone]
100 °C	CC(C)NCC(O)c1cc(O)cc(O)c1 (stereo not drawn) [Orciprenaline]
136 °C	O=C(C1CCCCC1)N1CC(=O)N2CCc3ccccc3C2C1 (stereo not drawn) [Praziquantel]
55 °C	CCOC(=O)c1csc(C)n1 [ethyl 2-methylthiazole-4-carboxylate]
240 °C	COc1c(N2C[C@@H]3CCCN[C@@H]3C2)c(F)cc2c(=O)c(C(=O)O)cn(C3CC3)c12 [Moxifloxacin]
31 °C	CCCCCCCCCCCCCCCC(=O)OC [methyl palmitate]
199 °C	O=C(O)c1ccc(C(=O)c2ccccc2)cc1 [4-benzoylbenzoic acid]
-148 °C	CCS [ethanethiol]
143 °C	O=C(Oc1ccc([N+](=O)[O-])cc1)c1ccccc1 [4-nitrophenyl benzoate]
